From patent publication US9464326B2, “Total and phosphorylated IL-1 receptor-associated kinase-1 and IL-1 receptor-associated kinase-4 as a biomarker for cancer progression and chemotherapy resistance” (University of Maryland, Baltimore, priority 2012, dated 2016)

Tests used:
A375 melanoma cells = experiment: Apoptosis by annexin-V/PI flow cytometry in A375; type: cell-based, human
Protocol: FIG. 8. IRAK-1,-4 inhibition sensitized melanoma cells to vinblastine-mediated cytotoxicity. (A) A375 and Malme-3M melanoma cells were cultured with or without 2.5 μM of IRAK-1,-4 and in the presence varying concentrations of vinblastine, cisplatin or 5′ Fluorouracil. Forty-eight hours later apoptosis was evaluated by staining cells with annexin-V and propidium iodide and analyzed by flow cytometry. (B) A375 cells were transfected via electroporation with siRNA-IRAK-1,-4. IRAK-1 protein levels were examined by Western blotting. […], A375-psiRNA-hIRAK-1, A375-psiRNA-hIRAK-4, or cells expressing both psiRNA-hIRAK-1 and -4 were cultured in the presence of vinblastine (100 nmol/L) for 48 hours and apoptosis was examined by flow cytometry. (C) A375 melanoma cells were cultured in the presence of vehicle alone (DMSO) or various concentrations of IRAK-1,-4. Forty-eight hours later cell lysates were used to analyze the expression of levels of cleaved PARP or caspase-3 by Western blots. (D) A375 melanoma cells were cultured with or without 2.5 μM of IRAK.-1,-4 and in the presence or absence of vinblastine for 48 hrs. PARP and caspase-3 levels were determined by Western blot.
FIG. 20. Role of TLR-induced cytokines and NF-kB on cell survival. […] The percentage of apoptotic cells was measured by staining cells with Annexin and PI 48 hours later and analyzed by flow cytometry. […] After 48 hours, apoptosis was measured by flow cytometry. […] Apoptosis was measured 48 hours later by flow cytometry.
The TLR1-TLR2 ligand tripalmitoyl-S-(bis(palmitoyloxy)propyl)-Cys-Ser-(Lys)3-Lys (Pam3Cys) was purchased from Invivogen (San Diego, Calif., USA). […] In some experiments cells were treated with the indicated concentrations of IRAK.-1,-4 inhibitor and vinblastine, cisplatin, and 5-fluorouracil (Sigma-Aldrich, St. Louis, Mo.), and apoptosis was quantitated by flow cytometry after staining cells with FITC-labeled annexin-V (BD Pharmingen, San Jose, Calif.) and propidium iodide (PI; Sigma-Aldrich).

CCRF-CEM T-ALL cells = experiment: Antibody (protein) array of apoptosis-related proteins; settings: IRAK-1,-4 inhibitor vs DMSO, 72 hours, normalised to GAPDH
Protocol: We also used a protein array from Full Moon Biosystems (Sunnyvale, Calif., USA). For these experiments, purified T-ALL cells were incubated for 48 hours in the presence of IRAK-1,-4 inhibitor (5 μM) or an equal volume of vehicle (DMSO). Then, total protein was extracted, and the levels of various proteins were measured according to the manufacturer's protocol.

In the case of `O=C(Nc1nc2ccccc2n1CCN1CCOCC1)c1cccc([N+](=O)[O-])c1` [IRAK-1,-4 inhibitor], the “sensitivity to vinblastine (apoptosis)” value (A375 melanoma cells; 2.5 μmol/L IRAK-1,-4 inhibitor with 0-200 nmol/L vinblastine, 48 h) was “increased sensitivity”, the “cisplatin's cytotoxicity” value (A375 melanoma cells; IRAK-1,-4 inhibitor with 0-50 nmol/L cisplatin) was “did not increase” and the melanoma apoptosis (A375 melanoma cells; inhibitor alone, absence of vinblastine) was “moderately increased”. The “Fold Change: AFX(Ab-197)” value (CCRF-CEM T-ALL cells) was −2.62 fold, the “Fold Change: AFX(Phospho-Ser 97)” value (CCRF-CEM T-ALL cells) was −2.03 fold and the “Fold Change: BAD(Ab-112)” value (CCRF-CEM T-ALL cells) was −1.76 fold. The “Fold Change: BAD(Phospho-Ser112)” value (CCRF-CEM T-ALL cells) was −2.44 fold, the “Fold Change: BCL-XL(Phospho-Ser62)” value (CCRF-CEM T-ALL cells) was −2.42 fold and the “Fold Change: CDC2(Phospho-Tyr15)” value (CCRF-CEM T-ALL cells) was −2.33 fold. For the same compound, the “Fold Change: FKHR(Ab-319)” value (CCRF-CEM T-ALL cells) was −2.54 fold, the “Fold Change: FKHRL1(Ab-253)” value (CCRF-CEM T-ALL cells) was −2.36 fold and the “Fold Change: FKHRL1(Phospho-Ser253)” value (CCRF-CEM T-ALL cells) was −2.53 fold. For the same compound, the “Fold Change: GSK3 alpha(Phospho-Ser21)” value (CCRF-CEM T-ALL cells) was −2.13 fold, the “Fold Change: HSP27(Phospho-Ser15)” value (CCRF-CEM T-ALL cells) was −2.20 fold and the “Fold Change: IKB-alpha(Ab-32/36)” value (CCRF-CEM T-ALL cells) was −1.96 fold. For the same compound, the “Fold Change: IKB-alpha(Phospho-Ser32/Phospho-Ser36)” value (CCRF-CEM T-ALL cells) was −2.95 fold, the “Fold Change: IRS-1(Phospho-Ser639)” value (CCRF-CEM T-ALL cells) was −2.37 fold and the “Fold Change: JAK2(Phospho-Tyr221)” value (CCRF-CEM T-ALL cells) was −2.05 fold. The “Fold Change: NFKB-p65(Ab-435)” value (CCRF-CEM T-ALL cells) was −1.39 fold, the “Fold Change: NFKB-p65(Phospho-Thr435)” value (CCRF-CEM T-ALL cells) was −2.39 fold and the “Fold Change: NFKB-p100/p52(Phospho-Ser869)” value (CCRF-CEM T-ALL cells) was −2.50 fold. For the same compound, the “Fold Change: NFKB-p105/p50(Phospho-Ser337)” value (CCRF-CEM T-ALL cells) was −4.06 fold, the “Fold Change: PTEN(Phospho-Ser380)” value (CCRF-CEM T-ALL cells) was 1.35 fold and the “Fold Change: Raf1(Phospho-Ser338)” value (CCRF-CEM T-ALL cells) was −2.46 fold. For the same compound, the “Fold Change: STAT1(Phospho-Ser727)” value (CCRF-CEM T-ALL cells) was −2.17 fold, the “Fold Change: STAT3(Phospho-Ser727)” value (CCRF-CEM T-ALL cells) was −2.11 fold and the “Fold Change: p44/42 MAP Kinase(Phospho-Tyr204)” value (CCRF-CEM T-ALL cells) was −2.24 fold. The “Fold Change: p53(Ab-46)” value (CCRF-CEM T-ALL cells) was −1.39 fold and the “Fold Change: p53(Phospho-Ser46)” value (CCRF-CEM T-ALL cells) was −2.27 fold.
